Measurements: US11952353B2, “STAT3 transcription factor inhibitors and methods of using the same” (The Regents of the University of Colorado, A Body Corporate, priority 2018, dated 2024)

Assays:
[1] = target: T1, full-length, GST-tagged human STAT3 protein (Homo sapiens, UniProt P40763); assay: Recombinant STAT3 ELISA (STAT3/DNA binding); format: biochemical; conditions: 2 μM; for mean value, % of STAT3 only control: 1 hour incubation
T1 construct: full-length, GST-tagged human STAT3 protein and various concentrations of compounds
T1 sequence (P40763 whole entry): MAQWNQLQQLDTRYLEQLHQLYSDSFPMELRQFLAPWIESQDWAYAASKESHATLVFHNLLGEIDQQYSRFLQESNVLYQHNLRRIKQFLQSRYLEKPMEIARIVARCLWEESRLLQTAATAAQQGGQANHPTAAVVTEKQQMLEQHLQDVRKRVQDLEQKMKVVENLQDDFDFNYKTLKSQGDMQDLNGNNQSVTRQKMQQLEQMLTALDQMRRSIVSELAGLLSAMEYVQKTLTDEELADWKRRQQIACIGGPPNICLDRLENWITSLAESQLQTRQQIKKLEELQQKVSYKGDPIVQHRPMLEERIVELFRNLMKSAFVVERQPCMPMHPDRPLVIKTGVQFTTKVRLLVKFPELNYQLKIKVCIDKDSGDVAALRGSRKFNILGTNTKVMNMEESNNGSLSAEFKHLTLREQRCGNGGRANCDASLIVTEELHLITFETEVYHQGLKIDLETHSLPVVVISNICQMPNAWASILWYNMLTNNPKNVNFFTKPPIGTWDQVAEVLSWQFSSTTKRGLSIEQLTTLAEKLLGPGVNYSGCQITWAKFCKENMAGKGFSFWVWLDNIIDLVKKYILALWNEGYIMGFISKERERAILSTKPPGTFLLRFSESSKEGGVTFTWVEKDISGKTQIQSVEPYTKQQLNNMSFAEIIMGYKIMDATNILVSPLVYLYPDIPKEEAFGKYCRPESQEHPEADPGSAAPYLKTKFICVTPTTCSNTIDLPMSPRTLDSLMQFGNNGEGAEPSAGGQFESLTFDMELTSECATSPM
Description: Measurement of STAT3 binding to DNA was performed using a TransAM STAT3 ELISA kit (Active Motif) and according to the previously used protocol. Briefly, full-length, GST-tagged human STAT3 protein and various concentrations of compounds to be evaluated or niclosamide were incubated in Complete Lysis Buffer at a final volume of 20 μL containing 0.1 μg recombinant protein for 1 hour with mild agitation. Following incubation with STAT3 inhibitors, samples were added to corresponding ELISA wells with 30 μL of Complete Binding Buffer and inhibition of STAT3 protein binding to the DNA consensus sequence was determined. Data was reported as percent of control.

SH2 domain of STAT3 [2] = target: T2, SH2 domain of STAT3 (Homo sapiens, UniProt P40763); assay: Fluorescence polarization (FP) assay; format: binding; conditions: 25 μM
T2 construct: 100 nM of full length GST-tagged human STAT3 protein (Abcam); purchased Abcam
T2 sequence (P40763 whole entry, the tested form may be a part): as the sequence (P40763 whole entry) above
Description: FP assay was conducted as previously reported (Steffanie L. Furtek, S. L., et al., Evaluation of quantitative assays for the identification of direct signal transducer and activator of transcription 3 (STAT3) inhibitors (November 2016) Oncotarget 7(47): 77998-78008). Briefly, assay buffer (10 mM HEPES, pH 7.5, 50 mM NaCl, 1 mM EDTA, 2 mM DTT, and 0.01% Triton-X100), 100 nM of full length GST-tagged human STAT3 protein (Abcam), and varying concentrations of compounds were incubated for 1 hour at room temperature with mild agitation in 96-well half area black plates (Corning). Fluorescent peptide 5-FAM-G(pTyr)LPQTV-CONH2 (Genscript) was added to each assay well at a concentration of 10 nM. Final well volumes were 30 μL. Following incubation with fluorescent peptide for 30 minutes at room temperature with mild agitation, plates were examined using FP Fluorescein Dual module with excitation filter FITC FP 480 and emission filter FITC FP P-pol535 and S-pol535. Data was expressed as percent control using the equation % C=(mPdrug−mPfree)/(mPSTAT3−mPfree)*100 where mP is the value for FP measurement.

HeLa cells [3] = assay: MTT cell viability assay; format: cell-based; conditions: 24 h; for EC50: Homo sapiens
Description: HeLa cells were plated in 96-well plates at a density of 5,000 cells/well in 100 μL of media and were incubated for 24 hours. Media was then aspirated and replaced with 100 μL of media containing various concentrations of compounds ranging from 500 μM-0.0019 μM. Cells were exposed to compounds for 24 hours, following which the media was aspirated and 50 μL MTT solution diluted in media was added to each well at a final concentration of 1 mg/mL. MTT was exposed to cells for 4 hours, aspirated, and then 100 μL of DMSO was added to each well. Plates were agitated for 10 minutes prior to reading absorbance at 540 nm in a microplate reader. Data was normalized and reported as percent of control.

STAT3 = target: T3, STAT3 (Homo sapiens, UniProt P40763); assay: Cell-based STAT3 DNA-binding ELISA; conditions: HeLa; for reduction of STAT3/DNA-binding: 24 h, 1 μM; for EC50: 24 h dose response
T3 construct: endogenous in cells; host or cells: HeLa
T3 sequence (P40763 whole entry): as above
Description: Nuclear extracts were prepared using a nuclear extraction kit (Signosis) according to product directions. Briefly, 100 mm dishes of cells were washed with 1×PBS and then 1 mL of 1× Buffer I was added and dishes were rocked on ice for 10 minutes. Cells were released from the dish using a sterile scraper and centrifuged at 1200 rpm for 5 minutes at 4° C. The supernatant was discarded and the pellets were resuspended in 1× Buffer II and shaken on ice for 2 hours. Samples were centrifuged at 1200 rpm for 5 minutes at 4° C. and the resulting supernatants containing the nuclear extracts were placed in new microcentrifuge tubes. Protein concentrations of samples were determined via Bradford assay.
HeLa cells were plated at 1 million cells per 100 mm dish and incubated for approximately 72 hours, resulting in serum-starved confluent plates. Plates were then washed with PBS and fresh media was added containing concentrations of compounds to be evaluated or niclosamide for 24 hours. For single concentrations of compounds, cells were treated with 1 μM of compounds, as derived from 24 hour MTT assay EC50 value for niclosamide. Dose-responses of niclosamide, compound 8, and compound 17 were similarly prepared at concentrations ranging from 2-0.0156 μM. Following incubation with compounds, cellular nuclear extracts were prepared.
Measurement of STAT3 binding to DNA was performed using the TransAM STAT3 ELISA kit. Sample wells contained 20 μg of nuclear extracts from treated HeLa cells diluted in 20 μL of Complete Lysis Buffer. The ELISA was then performed as described in the recombinant ELISA section. Data was normalized and reported as percent of control.

HeLa cells [4] = assay: Caspase 3/7 assay (apoptosis); format: cell-based; conditions: 24 and 48 hours
Description: The effect of STAT3 inhibitor on caspase activity was evaluated using a Caspase-Glo 3/7 kit (Promega) according to product directions. Briefly, HeLa cells were plated in white-walled, clear bottom 96-well plates at a density of 5,000 cells/well in 100 μL of media and were incubated for 24 hours. Media was then aspirated and replaced with 100 μL of media containing 1 μM or 10 μM of STAT3 inhibitor. Cells were exposed to compounds for 24 and 48 hours, following which plates were allowed to equilibrate to room temperature. Reconstituted caspase reagent was added to sample wells in a 1:1 ratio, mixed, and incubated in the dark for 1 hour. Luminescence was read using a microplate reader.

[5] = test system: Leukemia Stem cells (LSCs); assay: Leukemia stem cell viability (apoptosis markers, flow cytometry); format: cell-based; conditions: 24 hours
Description: (§1) Leukemia Stem cells (LSCs) were incubated with compound 17 (STAT3i) for 24 hours and cell viability was measured. […] Primary human AML cells were treated with compound 17 (STAT3i). The cells were then cultured on methylcellulose and colony formation was measured. […] STAT3 was knocked down in primary human AML samples using shRNA methods (shSTAT3).

Primary human AML cells = assay: Colony formation on methylcellulose; format: cell-based
Description: as §1

[6] = test system: Cord-blood derived CD34+ normal hematopoietic stem cells; assay: Viability of normal hematopoietic stem cells; format: cell-based
Description: (§2) Cord-blood derived CD34+ normal hematopoietic stem cells were treated with compound 17 (STAT3i).

[7] = test system: Cord-blood derived CD34+ normal hematopoietic stem cells; assay: Colony formation of normal hematopoietic stem cells; format: cell-based
Description: as §2

Primary AML cells = assay: Engraftment of treated primary AML cells transplanted into immunodeficient mice; format: in vivo; conditions: then transplanted into immunodeficient mice
Description: Primary AML cells were treated with compound 17 (STAT3i) and transplanted into immunodeficient mice.

[8] = test system: Leukemia Stem cells (LSCs); assay: Seahorse assay of oxygen consumption; format: cell-based; conditions: four hours incubation
Description: (§3) Leukemia stem cells (LSCs) were incubated with compound 17 (STAT3i) for four hours. Seahorse assays were then used to measure oxygen consumption. […] Flow cytometry analysis verified that there was no cell death at the time of RNAseq analysis. FIG. 19 is a chart showing the expression changes of various genes involved in OXPHOS after incubation with compound 17. FIG. 20 is an image of western blot analysis of the expression of electron transport chain genes after incubating cells with compound 17.

[9] = test system: Leukemia Stem cells (LSCs); assay: RNAseq, qPCR and western blot expression analysis in LSCs; format: cell-based
Description: as §3
Leukemia stem cells (LSCs) were incubated with compound 17 (STAT3i) and RNAseq analysis was subsequently performed. […] Knockdown of Myc in LSCs using siRNA leads to a subsequent downregulation of the glutamine receptor SLC1A5 and a decrease in OXPHOS.

Primary AML samples = assay: Glutamine flux, ROS and western blot in primary AML samples; format: cell-based
Description: Primary AML samples were incubated with heavy labeled glutamine in flux experiments aimed at measuring TCA cycle metabolites. […] FIG. 22 is a graph showing that reactive oxygen species (ROS) is increased in AML cells that were treated with compound 17 (STAT3i).

SH2 domain of STAT3 [10] = target: T2, SH2 domain of STAT3; conditions: concentrations above 10 μM; cited from earlier work

O=C(Oc1ccc([N+](=O)[O-])cc1Cl)c1cc(Cl)ccc1O [Compound 4, 2-Chloro-4-nitrophenyl 5-chloro-2-hydroxybenzoate]
reduction of recombinant STAT3/DNA-binding relative to niclosamide [1]: performed worse than niclosamide
mean value, % of STAT3 only control [1]: 76%

O=C(Nc1ccc([N+](=O)[O-])cc1Br)c1cc(Br)ccc1O [Compound 2, 5-Bromo-N-(2-bromo-4-nitrophenyl)-2-hydroxybenzamide]
affinity for the SH2 domain (SH2 domain of STAT3 [2]): slight affinity for the SH2 domain

O=C(Nc1ccc([N+](=O)[O-])cc1Cl)c1cc([N+](=O)[O-])ccc1O [Compound 9, N-(2-Chloro-4-nitrophenyl)-2-hydroxy-5-nitrobenzamide]
reduction of recombinant STAT3/DNA-binding relative to niclosamide [1]: means less than or equal to niclosamide

O=C(Nc1ccc([N+](=O)[O-])cc1Cl)c1cc(Cl)c(-c2ccco2)cc1O [Compound 17, 5-Chloro-N-(2-chloro-4-nitrophenyl)-4-(furan-2-yl)-2-hydroxybenzamide]
reduction of recombinant STAT3/DNA-binding relative to niclosamide [1]: means less than or equal to niclosamide
total cell viability (HeLa cells [3]): did not drop below 50% until high concentrations
EC50 (HeLa cells [3]): 0.315 ± 0.07 µM
reduction of STAT3/DNA-binding (STAT3): approx. 80%
EC50 (STAT3): 0.059 ± 0.011 µM
induction of apoptosis (HeLa cells [4]; 1 μM): time-dependent increase in apoptosis
cell viability of LSCs [5]: significant cell death
colony formation of primary human AML cells (Primary human AML cells): significant decrease in colony formation
viability of CD34+ normal hematopoietic stem cells [6]: not affected
colony formation of CD34+ normal hematopoietic stem cells [7]: not affected
engraftment of primary AML cells (Primary AML cells): decreased engraftment
oxygen consumption [8]: decrease in oxygen consumption
expression of OXPHOS and mitochondrial matrix genes [9]: decrease in the expression
Myc expression ([9]; verified by qPCR and western blot): decreased
reactive oxygen species (ROS) (Primary AML samples; AML cells): increased
TCA cycle metabolites (Primary AML samples; heavy labeled glutamine flux): decrease in TCA cycle metabolites
SLCA15 expression (Primary AML samples; western blot): downregulated

O=C(Nc1ccc([N+](=O)[O-])cc1Cl)c1cc(Cl)c(-c2ccccc2)cc1O [Compound 14, 2-Chloro-N-(2-chloro-4-nitrophenyl)-5-hydroxy-[1,1′-biphenyl]-4-carboxamide]
affinity for the SH2 domain (SH2 domain of STAT3 [2]): slight affinity for the SH2 domain

O=C(Nc1ccc([N+](=O)[O-])cc1Cl)c1cc(Cl)ccc1O [niclosamide, reference compound]
EC50 (HeLa cells [3]): 1 µM
reduction of STAT3/DNA-binding (STAT3): approx. 80%
EC50 (STAT3): 0.179 ± 0.028 µM
induction of apoptosis (HeLa cells [4]; 1 μM): only a slight increase in apoptosis
induction of apoptosis (HeLa cells [4]; 10 μM): twice as much apoptosis

O=C(Nc1ccccc1Cl)c1cc(Cl)ccc1O [Compound 3, 5-Chloro-N-(2-chlorophenyl)-2-hydroxybenzamide]
reduction of recombinant STAT3/DNA-binding relative to niclosamide [1]: performed worse than niclosamide
mean value, % of STAT3 only control [1]: 80%

S3I-1757 [Compound S3I-1757]
inhibition of fluorescent peptide binding (SH2 domain of STAT3 [10]): complete inhibition

CN(C(=O)c1cc(Cl)ccc1O)c1ccc([N+](=O)[O-])cc1Cl [Compound 8, 5-Chloro-N-(2-chloro-4-nitrophenyl)-2-hydroxy-N-methylbenzamide]
reduction of recombinant STAT3/DNA-binding relative to niclosamide [1]: means less than or equal to niclosamide
EC50 (HeLa cells [3]): 1.15 ± 0.38 µM
reduction of STAT3/DNA-binding (STAT3): approx. 80%
EC50 (STAT3): 0.239 ± 0.039 µM
induction of apoptosis (HeLa cells [4]; 10 μM): time-dependent increase in apoptosis

O=C(Nc1ccc([N+](=O)[O-])cc1Cl)c1cc(Cl)ccc1Cl [Compound 18, 2,5-Dichloro-N-(2-chloro-4-nitrophenyl)benzamide]
reduction of recombinant STAT3/DNA-binding relative to niclosamide [1]: means less than or equal to niclosamide

Nc1ccc(NC(=O)c2cc(N)ccc2O)c(Cl)c1 [Compound 10, 5-Amino-N-(4-amino-2-chlorophenyl)-2-hydroxybenzamide]
affinity for the SH2 domain (SH2 domain of STAT3 [2]): slight affinity for the SH2 domain
